Source: patent US20260035670A1, “IN VITRO CONSTRUCT USEFUL FOR DRUG TOXICITY SCREENING” (Wake Forest University Health Sciences, priority 2022, published 2026)

How the values were obtained:
[1] = tested on: oxidative phosphorylation complexes I-V in USC of 3D spheroids; assay: Oxidative phosphorylation complexes I-V in 3D USC spheroids after ddC (Western blot); assay type: cell-based, human
Experimental: (§1) To determine the dose effect of ddC on cell viability, mitochondrial function and oxidative stress of USC in both 3D cultures, ddC was added to spheroids and USC-SFM at different doses: 0.2, 2 and 10 μM in the culture medium every 2 days, 3 replicates per concentration. To evaluate the time-dependent effect of ddC on USC in 3D cultures, spheroids and USC-SFM samples were assayed 2-6 weeks after administering ddC, 3 replicates per time point. DMSO (0.1%) was used as a control.
(§2) To generate sufficient cell numbers for immunoblot analysis, USC (5×10^5 cells) within spheroids and 1-SFM were loaded in 81-well molds made by Micro-Tissues 3D Petri Dish (Sigma, USA). USC in 2D culture were seeded onto a 6-well plate at a density of 5×10^5 cells/well as control. After a wash of the cell samples with PBS, the USC were harvested and incubated for 30 min in the presence of […] of lysis buffer (Pierce, Rockford, IL) with 1% protease/phosphatase inhibitor cocktail (Cell Signaling Technology, Danvers, MA), vortexing every 5 min during incubating. The lysate was clarified by centrifugation, and protein concentrations were tested by Pierce™ BCA Protein Assay Kit. Following separation in 15% SDS-PAGE gels, the proteins were transferred onto a PVDF membrane (ThermoFisher) by a Bio-Rad Trans-Blot SD Semi-Dry Transfer Cell under 12 V for 1 h.
(§3) Individual activity of oxidative phosphorylation complexes I, II, II IV, V94 and mitochondrial SOD2 in USC before or after treatment with ddC at three doses were assessed. The membrane was blocked for 30 min in PBS-0.1% Tween 20 (PBST) containing 5% bovine serum albumin (BSA), washed with PBST, and incubated with the primary antibodies for 2 h or 4° C. overnight, diluted by PBST containing 5% BSA. After extensive washing with PBST, the membrane was incubated in the secondary antibodies correspondingly for 1 h at room temperature. The washed membrane was treated with an Immobilon ECL Ultra Western HRP Substrate (Millipore Sigma) and analyzed with a Fujifilm LAS-3000 Luminescent Image Analyzer system.

[2] = tested on: USC in 3D silk fiber matrix (3D USC-SFM); assay: mtDNA content (q-PCR) and mitochondrial mass of USC in 3D USC-SFM treated with ddC; assay type: cell-based, human
Experimental: as §1, with “0.2, 2 and 10 μM in the culture medium every” left out
(§4) To measure the levels of cell senescence genes ([…], 21 and Rb) (Kang et al. Science 349 (2015) aaa5612) and mitochondrial DNA (mtDNA) content, mRNA expression of spheroid (n ¼ 3) and 3D USC-SFM (n ¼ 3) samples were assessed using BioRad CFX connect Real-time PCR Detection System (Rooney et al. Methods Mol. Biol. 1241 (2015) 23e38). Genomic DNA was extracted from the cells using a DNeasy Blood & Tissue Kit (Qiagen, Valencia, Cat. No 69504) according to the manufacturer's protocol. The Q-PCR recipe was a mix with SYBR Green SuperMix (ThermoFisher, USA, Cat. No 4367659) using both the mitochondrial and the nuclear primers, and this temperature cycling was used: initial denaturing at 50° C. for 2 min, 95° C. for 15 min, followed by 40 cycles of denaturing at 95° C. for 30 s, annealing at 60° C. for 1 s and extension at 95° C. for 15 s, 60° C. for 1 min, annealing at 95° C. for 15 s, 60° C. for 1 min and dissociating at 95° C. for 15 s.

USC in 2D culture = assay: Cell viability and growth of USC in 2D culture treated with ddC; assay type: cell-based, human
Experimental: Cell proliferation or viability was measured at different time points after USC were seeded on 2D, spheroids and 3D-SFM in 96-well plates, respectively, assessed by Cell Counting Kit-8 (CCK-8 assay, Dojindo, Japan), according to manufacturer's instructions. The absorbance at 450 nmwas measured using microplate reader (MultiSkan FC, Thermo, USA).

USC in 3D spheroids = assay: mtDNA content (q-PCR) and mitochondrial mass of USC in 3D spheroids treated with ddC; assay type: cell-based, human
Experimental: as §1, §4

USC in 3D USC-SFM = assay: Cell viability/growth of 3D USC-SFM treated with ddC (CCK-8); assay type: cell-based, human
Experimental: as §1, with “Cell proliferation or viability was measured at different time points after USC were seeded on 2D, spheroids and 3D-SFM in 96-well plates, respectively, assessed by Cell Counting Kit-8 (CCK-8 assay, Dojindo, Japan), according to manufacturer's instructions. The absorbance at 450 nmwas measured using microplate reader (MultiSkan FC, Thermo, USA). To determine” for “To determine”

[3] = tested on: oxidative phosphorylation complexes I-V in USC of 3D USC-SFM; assay: Oxidative phosphorylation complexes I-V in 3D USC-SFM after ddC (Western blot); assay type: cell-based, human
Experimental: as §1, with “0.2, 2 and 10 μM in the culture medium every” left out
as §2, §3

[4] = Gorwood et al. 2020; cited from earlier work
microglia cells = settings: George et al. 2021; cited from earlier work
CD4+ T cells = settings: Korencak et al. 2019; cited from earlier work
[5] = 3D USC-SFM, six weeks after ddC (0.2, 2, and 10 μM), vs 0.1% DMSO control
[6] = 3D spheroids, six weeks after ddC (0.2, 2, and 10 µM), vs 0.1% DMSO control

Q: Which results are given for `Nc1ccn([C@H]2CC[C@@H](CO)O2)c(=O)n1` [ddC, Zalcitabine]?
A: expression of ETC complex I-IV ([1]; 3D organoids, ddC middle and high doses, wk 6): decrease; levels of complexes I, II and IV ([1]; 3D spheroids, low dose ddC): significantly increased; mitochondrial toxicity (decreasing levels of complexes I-IV) ([1]; spheroids): significant dose- and time-dependent; complex I level (only complex affected) ([1]; spheroids treated with ddC): declined; Levels of mtDNA content ([2]; 3D USC-SFM, 2 and 6 weeks, ddC 0.2, 2, or 20 μM, vs DMSO standardized as 100%): significantly decreased; Manner of decrease of mtDNA content ([2]; 3D USC-SFM, q-PCR): time-depended manner; mitochondrial mass [2, 5]: significantly decreased; mtDNA content [2, 5]: significantly decreased; mtDNA content ([2]; ddC at 2 or 20 μM compared to 0.1 μM ddC, 3D culture of USC (model not given)): significantly inhibited; cell viability and growth of USC (USC in 2D culture): significantly affected; cells remaining on the dishes (USC in 2D culture; 2 weeks after ddC treatment): few cells remaining; Levels of mtDNA content (USC in 3D spheroids; 3D spheroid of USC, 2 and 6 weeks, ddC 0.2, 2, or 20 μM, vs DMSO standardized as 100%): significantly decreased; Manner of decrease of mtDNA content (USC in 3D spheroids; 3D spheroids of USC, q-PCR): dose-dependent manner; mitochondrial mass (USC in 3D spheroids; [6]): significantly decreased; mtDNA content (USC in 3D spheroids; [6]): significantly decreased; cell survival and growth (USC in 3D USC-SFM; 3D USC-SFM, 3 days, or 1, 2, 4, and 6 weeks): did not significantly affect; cytotoxicity (USC in 3D USC-SFM; USC in 3D cultures): mild; levels of complex I, and IV ([3]; 2 weeks, ddC 2 and 10 μM vs low dose (0.1 μM)): significantly decreased; mitochondrial toxicity (decreasing levels of complexes I-IV) ([3]; 3D SFM): significant dose- and time-dependent; Levels of complexes I, II, and III ([3]; 3D SFM-USC treated with ddC): significantly decreased; levels of complexes II, III and IV ([3]; 3D USC-SFM compared to complex levels in spheroids): significantly decreased; chronic MtT ([3]; 3D USC-SFM model): dose- and time-dependent chronic MtT displayed; complex I-IV levels ([3]; 3D USC-SFM, ddC 2 and 10 μM, 6 weeks compared to 2 weeks): significantly decreased; increase of levels of complexes I, II and IV ([3]; 3D USC-SFM, low dose ddC): did not occur; mitochondrial function (inhibiting oxidative phosphorylation complex I-IV) ([3]; 3D culture models): significant impairment; levels of complex I, II, III and IV ([3]; 6 weeks, middle and high dose ddC vs low dose): significantly declined; activity of complex II-IV ([3]; USC-SFM, ddC middle and high doses vs low dose, week 6): significantly decreased; expression of ETC complex I-IV ([3]; USC-SFM, ddC middle and high doses, wk 6): decrease

Q: For `C[C@@H]1CCO[C@H]2Cn3cc(C(=O)NCc4ccc(F)cc4F)c(=O)c(O)c3C(=O)N12` [dolutegravir], which “pro-adipogenic and pro-lipogenic effects, oxidative stress, mitochondrial dysfunction, insulin resistance” value [4] is on record?
A: The value was “display pro-adipogenic and pro-lipogenic effects, and promote oxidative stress, mitochondrial dysfunction, and insulin resistance”.

Q: What about the mitochondrial dysfunction (microglia cells) of the same compound?
A: The mitochondrial dysfunction was “induces mitochondrial dysfunction”.

Q: What about the “levels of mitochondrial ROS and mitochondrial mass” value (CD4+ T cells) of the same compound?
A: Its value is “increased”.

Q: With `COc1cc2c(cc1Cc1cccc(Cl)c1F)c(=O)c(C(=O)O)cn2[C@H](CO)C(C)C` [elvitegravir] as the compound, how does the “levels of mitochondrial ROS and mitochondrial mass” value (CD4+ T cells) read?
A: The value was “increased”.
